Measured values from PMC9765450, “Structures of Fission Yeast Inositol Pyrophosphate Kinase Asp1 in Ligand-Free, Substrate-Bound, and Product-Bound States” (mBio, 2022).

Target: T1, Asp1-(1-385) kinase domain (Schizosaccharomyces pombe, UniProt O74429, E248Q)
T1 construct: N-terminal kinase domain, residues 1-385
Assay: PAGE kinase assay, toluidine blue staining
Type: biochemical
Settings: 2 mM GTP, 0.5 mM 5-IP7, 5 mM MgCl2, pH 6.2, 37 °C; phosphate donor

Nc1nc2c(ncn2[C@@H]2O[C@H](COP(=O)(O)OP(=O)(O)OP(=O)(O)O)[C@@H](O)[C@H]2O)c(=O)[nH]1 [GTP]
PAGE kinase assay, toluidine blue staining: elicited a gain of function whereby GTP was enabled as a phosphate donor
